≈ marks a conversion by molar mass, not a printed value. Read-outs that look alike come from different tables or passages of the source.

By MIC50 is commonly meant the lowest concentration that inhibits either 50% of growth or 50% of the strains tested, depending on the study. In general, MIC90 refers to the lowest concentration that inhibits either 90% of growth or 90% of the strains tested, depending on the study.

One assay has as its system Streptococcus pneumoniae. As to the kind of experiment: MIC by E-test (broth microdilution for gemifloxacin), 107 pneumococcal carrier isolates, Athens 1998. To be noted: for MIC Range: in µg/mL (unit assumed). It counts as cell-based. How it is done:
Susceptibility testing was performed by agar dilution or epsilometer method (E-test), as recommended by the NCCLS. […] The susceptibility profiles of the strains were assessed using the Epsilometer method (E-test). The isolates were subdivided into two groups according to their penicillin susceptibility patterns (penicillin-susceptible and penicillin-intermediate.
(In broth dilution the organism is exposed to a series of concentrations in liquid medium.)

Another assay has as its system Staphylococcus aureus. The assay can be described thus: MIC by agar macrodilution (NCCLS), 373 Gram positive isolates, Athens 1998. In kind it is cell-based.
The test system of a further assay is Enterococcus faecalis. The description is as above. It counts as cell-based.
The subject of another assay is Enterobacter spp. The assay can be described thus: MIC by agar dilution (NCCLS), 322 nosocomial Gram negative isolates, Athens 1998. In kind it is cell-based. On the technique in general: In agar dilution the substance is mixed into plates at graded concentrations.
In a further assay the test system is Shigella spp. As to the kind of experiment: MIC by agar dilution (NCCLS M7-A4), 288 enteropathogenic isolates, gemifloxacin and 15 other antimicrobials. The settings on record: for MIC: Shigella spp. N= 21. In kind it is cell-based. The protocol: [A. hydrophila (12), and A. sobria (4)], and 91 Campylobacter jejuni. […] The strains were stored in skimmed-milk at -80 °C until studied.
The plates were incubated aerobically at 35 °C for 24 h, except for Campylobacter jejuni, where a microaerophilic atmosphere was obtained by using Campy Pack (Becton Dickinson, Cockeysville, MD, USA), and incubation was for 48 h. All organisms were tested with an inoculum of ≅ 10^4 cfu/spot. MICs were defined as the lower antibiotic concentration with no visible growth.

In a further assay the test system is Aeromonas spp. Described as above. It counts as cell-based.
The subject of a further assay is Campylobacter jejuni. The description is as above. To be noted: for MIC: Campylobacter jejuni.
The test system of the next assay is Yersinia enterocolitica. The assay is described as above. It counts as cell-based. To be noted: for MIC: Yersinia enterocolitica N= 22.
A further assay has as its system Hafnia alvei. The assay is described as above. In kind it is cell-based. The settings on record: for MIC: Hafnia alvei N= 32.
Another assay relates to Salmonella spp. The assay is described as above. In kind it is cell-based. To be noted: for MIC: Salmonella.
The mark [1] stands for this setting: continuation of the preceding table (title not shown), 14 isolates.
The mark [2] stands for this setting: 24 h, read-out: MIC (mg/L) Range.

`CC[C@H]1OC(=O)[C@H](C)[C@@H](O[C@H]2C[C@@](C)(OC)[C@@H](O)[C@H](C)O2)[C@H](C)[C@@H](O[C@@H]2O[C@H](C)C[C@H](N(C)C)[C@H]2O)[C@](C)(OC)C[C@@H](C)C(=O)[C@H](C)[C@@H](O)[C@]1(C)O` [Clarithromycin]: the MIC50 with Streptococcus pneumoniae (Streptococcus pneumoniae, Penicillin-intermediate S. pneumoniae (n = 24), E-test, read-out: MIC50) turned out to be 0.094 µg/mL (≈ 0.126 µM); in the assay with Streptococcus pneumoniae (Streptococcus pneumoniae, Penicillin-susceptible S. pneumoniae (n = 107), E-test, read-out: MIC50), 0.094 µg/mL (≈ 0.126 µM); with Staphylococcus aureus (Methicillin-susceptible Staphylococcus aureus (n = 85), read-out: MIC50), 0.25 µg/mL (≈ 0.334 µM). The MIC90 with Streptococcus pneumoniae (Streptococcus pneumoniae, Penicillin-intermediate S. pneumoniae (n = 24), E-test, read-out: MIC90) was not below 256 µg/mL; with Streptococcus pneumoniae (Streptococcus pneumoniae, Penicillin-susceptible S. pneumoniae (n = 107), E-test, read-out: MIC90) it was 0.38 µg/mL (≈ 0.508 µM); in the assay with Staphylococcus aureus (Methicillin-susceptible Staphylococcus aureus (n = 85), read-out: MIC90), 1 µg/mL (≈ 1.34 µM).
`CN[C@H](CC(C)C)C(=O)N[C@H]1C(=O)N[C@@H](CC(N)=O)C(=O)N[C@H]2C(=O)N[C@H]3C(=O)N[C@H](C(=O)N[C@H](C(=O)O)c4cc(O)cc(O)c4-c4cc3ccc4O)[C@H](O)c3ccc(c(Cl)c3)Oc3cc2cc(c3O[C@@H]2O[C@H](CO)[C@@H](O)[C@H](O)[C@H]2O[C@H]2C[C@](C)(N)[C@H](O)[C@H](C)O2)Oc2ccc(cc2Cl)[C@H]1O` [Vancomycin]: in the assay on Enterococcus faecalis, the “MIC distribution (µg/ml) 0.03” value came out at 0. Besides, in the assay on Enterococcus faecalis, the “MIC distribution (µg/ml) 0.06” value is reported as 0. In addition, in the assay on Enterococcus faecalis, the “MIC distribution (µg/ml) 0.125” value is given as 0. In addition, the “MIC distribution (µg/ml) 0.25” value with Enterococcus faecalis was determined as 0. Moreover, the “MIC distribution (µg/ml) 0.5” value in the assay on Enterococcus faecalis is listed as 0. Also, the “MIC distribution (µg/ml) 1” value with Enterococcus faecalis was 4; against Enterococcus faecalis (number of isolates at MIC 1 µg/ml, n = 81), 10. Besides, the “MIC distribution (µg/ml) 4” value against Enterococcus faecalis is 6; with Enterococcus faecalis (number of isolates at MIC 4 µg/ml, n = 81), 40. Besides, the “MIC distribution (µg/ml) 8” value against Enterococcus faecalis is on record as 0. The “MIC distribution (µg/ml) 16” value in the assay with Enterococcus faecalis came to 0. Besides, the “MIC distribution (µg/ml) ≤0.015” value against Enterococcus faecalis is reported as 0. For the same molecule, the MIC50 against Enterococcus faecalis (Enterococcus faecalis) was found to be 2 µg/mL (≈ 1.38 µM); with Enterococcus faecalis (setting [1]) it was 2 µg/mL (≈ 1.38 µM); against Streptococcus pneumoniae (Streptococcus pneumoniae, Penicillin-intermediate S. pneumoniae (n = 24), E-test) it was 0.75 µg/mL (≈ 0.518 µM); against Streptococcus pneumoniae (Streptococcus pneumoniae, Penicillin-susceptible S. pneumoniae (n = 107), E-test) it was 0.5 µg/mL (≈ 0.345 µM); in the assay with Staphylococcus aureus (Staphylococcus aureus), 1 µg/mL (≈ 0.69 µM). The MIC90 turned out to be 4 µg/mL (≈ 2.76 µM) in the assay on Enterococcus faecalis (Enterococcus faecalis); 4 µg/mL (≈ 2.76 µM) in the assay on Enterococcus faecalis (setting [1]); 1 µg/mL (≈ 0.69 µM) with Streptococcus pneumoniae (Penicillin-intermediate S. pneumoniae (n = 24), E-test, unit assumed); 1 µg/mL (≈ 0.69 µM) in the assay on Streptococcus pneumoniae (Streptococcus pneumoniae); 2 µg/mL (≈ 1.38 µM) with Staphylococcus aureus (Staphylococcus aureus). Besides, the “MIC Range” value with Enterococcus faecalis (setting [1]) was 1 to 4 µg/mL; in the assay with Streptococcus pneumoniae (Penicillin-intermediate S. pneumoniae (n = 24), E-test), 0.19-1.5; against Streptococcus pneumoniae (Penicillin-susceptible S. pneumoniae (n = 107), E-test), 0.064-2; in the assay on Staphylococcus aureus (Methicillin-susceptible Staphylococcus aureus (n = 85)), 0.5 to 2 µg/mL.
As to `CC(C)(O/N=C(\C(=O)N[C@@H]1C(=O)N2C(C(=O)[O-])=C(C[n+]3ccccc3)CS[C@H]12)c1csc(N)n1)C(=O)O` [Cetfazidime], in the assay on Enterobacter spp. (Enterobacter), the MIC50 was 1 µg/mL and the MIC90 is more than 64 µg/mL. Besides, in the assay with Enterobacter spp. ({}), the “MIC distribution (µg/ml) 0.06” value came to 1, the “MIC distribution (µg/ml) 0.25” value is 16, the “MIC distribution (µg/ml) 0.5” value is given as 3 and the “MIC distribution (µg/ml) 1” value was found to be 2. In the assay with Enterobacter spp. ({}), the “MIC distribution (µg/ml) 2” value is reported as 1, the “MIC distribution (µg/ml) 4” value was 0, the “MIC distribution (µg/ml) 8” value is on record as 2 and the “MIC distribution (µg/ml) 16” value was 6. Besides, in the assay with Enterobacter spp. ({}), the “MIC distribution (μg/ml) 32” value is recorded as 3 and the “MIC distribution (μg/ml) 64” value was found to be 2.
Regarding `CO/N=C(\C(=O)N[C@@H]1C(=O)N2C(C(=O)O)=C(COC(C)=O)CS[C@H]12)c1csc(N)n1` [Cefotaxime, cefotaxime], the MIC in the assay with Shigella spp. (setting [2]) was 0.015 to 0.03 mg/L (≈ 0.0329 to 0.0659 µM); in the assay with Shigella spp. (read-out: MIC (mg/L) 50%), not above 0.015 mg/L; in the assay with Shigella spp. (read-out: MIC (mg/L) 90%), 0.03 mg/L (≈ 0.0659 µM); in the assay on Aeromonas spp. (read-out: MIC (mg/L) 50%, Aeromonas spp. N= 16), 0.03 mg/L (≈ 0.0659 µM); with Aeromonas spp. (read-out: MIC (mg/L) 90%, Aeromonas spp. N= 16), 0.12 mg/L (≈ 0.263 µM); in the assay with Campylobacter jejuni (read-out: MIC (mg/L) 50%), 8 mg/L (≈ 17.6 µM). The MIC in the assay on Campylobacter jejuni (read-out: MIC (mg/L) 90%) was 16 mg/L (≈ 35.1 µM); with Yersinia enterocolitica (setting [2]), 0.06 to 0.12 mg/L (≈ 0.132 to 0.263 µM); in the assay with Yersinia enterocolitica (read-out: MIC (mg/L) 50%), 0.06 mg/L (≈ 0.132 µM); in the assay on Yersinia enterocolitica (read-out: MIC (mg/L) 90%), 0.06 mg/L (≈ 0.132 µM); with Hafnia alvei (setting [2]), 0.12 to 0.5 mg/L (≈ 0.263 to 1.1 µM); with Hafnia alvei (read-out: MIC (mg/L) 50%), 0.25 mg/L (≈ 0.549 µM). Moreover, the MIC stood at 0.5 mg/L (≈ 1.1 µM) in the assay on Hafnia alvei (read-out: MIC (mg/L) 90%); 0.12 mg/L (≈ 0.263 µM) with Salmonella spp. (read-out: MIC (mg/L) 50%, Salmonella spp. N= 106); 0.12 mg/L (≈ 0.263 µM) with Salmonella spp. (read-out: MIC (mg/L) 90%, Salmonella spp. N= 106). Also, the susceptible isolates with Shigella spp. (Shigella spp., breakpoints) came out at 100%; in the assay on Aeromonas spp. (Aeromonas spp., breakpoints) it was 100%; in the assay with Campylobacter jejuni (C. jejuni, breakpoints) it was 57%; in the assay on Yersinia enterocolitica (Yersinia enterocolitica, breakpoints) it was 100%; in the assay with Hafnia alvei (Hafnia alvei, breakpoints), 100%; with Salmonella spp. (Salmonella spp., breakpoints) it was 100%. Further, the entries for the “MIC (mg/L) Range” value in the assay with Aeromonas spp. (Aeromonas spp. N= 16), with Campylobacter jejuni (Campylobacter jejuni N= 91) and against Salmonella spp. (Salmonella spp. N= 106) were not above 0.015 to 0.12 mg/L, 2 to 32 mg/L and 0.06 to 0.5 mg/L, respectively.

(Values after EP1561465A2, “Methods of use of fluoroquinolone compounds against bacteria” (LG Life Sciences, Ltd., priority 1999, dated 2001).)
